Measured values published in ChEMBL document CHEMBL5528048, “Discovery of Novel Potent and Fast BTK PROTACs for the Treatment of Osteoclasts-Related Inflammatory Diseases” (J Med Chem, 2024).
Active and inactive are the calls of the source. No cut-off for these calls is given here.

Legend:
[1] = target: T1, Protein cereblon/Tyrosine-protein kinase BTK (Mus musculus) (UniProt P35991+Q8C7D2); assay: PROTAC activity at BTK/CRBN in mCSF/RANKL-stimulated C57BL/6J mouse BMDM assessed as reduction in phosphorylated JNK protein level at 25 to 100 nM followed by stimulated with mCSF/RANKL measured after 2 hrs by Western blotting analysis; type: cell-based; settings: dose 25-100 nM
T1 sequence (P35991 whole entry, looked up): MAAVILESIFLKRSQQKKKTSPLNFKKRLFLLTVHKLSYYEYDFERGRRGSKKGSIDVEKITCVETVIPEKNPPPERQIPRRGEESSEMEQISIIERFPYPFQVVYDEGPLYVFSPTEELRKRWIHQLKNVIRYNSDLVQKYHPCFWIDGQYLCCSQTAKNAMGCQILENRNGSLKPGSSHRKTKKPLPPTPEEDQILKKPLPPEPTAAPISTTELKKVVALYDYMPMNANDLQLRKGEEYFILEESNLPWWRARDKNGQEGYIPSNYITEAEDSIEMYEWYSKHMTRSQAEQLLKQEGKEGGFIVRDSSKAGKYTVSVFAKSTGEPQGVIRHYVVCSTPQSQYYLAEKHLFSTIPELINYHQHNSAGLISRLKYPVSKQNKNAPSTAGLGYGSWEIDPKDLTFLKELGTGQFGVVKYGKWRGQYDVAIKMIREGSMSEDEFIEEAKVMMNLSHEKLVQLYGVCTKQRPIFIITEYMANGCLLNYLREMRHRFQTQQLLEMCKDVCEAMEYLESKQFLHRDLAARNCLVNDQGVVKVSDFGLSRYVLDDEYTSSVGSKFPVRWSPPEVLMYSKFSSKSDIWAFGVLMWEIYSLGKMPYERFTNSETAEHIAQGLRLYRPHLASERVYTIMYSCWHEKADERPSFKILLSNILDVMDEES
T1 sequence (Q8C7D2 whole entry, looked up): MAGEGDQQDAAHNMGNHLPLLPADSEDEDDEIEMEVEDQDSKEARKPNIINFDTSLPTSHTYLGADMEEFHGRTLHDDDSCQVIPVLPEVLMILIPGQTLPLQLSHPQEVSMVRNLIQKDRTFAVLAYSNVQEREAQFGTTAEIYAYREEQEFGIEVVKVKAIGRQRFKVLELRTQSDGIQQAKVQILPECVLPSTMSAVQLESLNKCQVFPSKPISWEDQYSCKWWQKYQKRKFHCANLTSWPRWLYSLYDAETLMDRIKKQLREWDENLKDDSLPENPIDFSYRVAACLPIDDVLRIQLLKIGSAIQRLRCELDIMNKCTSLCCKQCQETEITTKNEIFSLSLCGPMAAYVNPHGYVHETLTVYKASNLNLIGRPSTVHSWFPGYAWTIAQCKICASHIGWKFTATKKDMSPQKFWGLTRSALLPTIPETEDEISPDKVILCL

[2] = target: T2, Protein cereblon/Tyrosine-protein kinase BTK (Homo sapiens, UniProt Q06187+Q96SW2); assay: PROTAC activity at BTK/CRBN in human MINO cells assessed as BTK protein degradation at 20 nM measured after 24 hrs by Western blotting analysis relative to control; type: cell-based
T2 sequence (Q06187 2-659 limits assumed): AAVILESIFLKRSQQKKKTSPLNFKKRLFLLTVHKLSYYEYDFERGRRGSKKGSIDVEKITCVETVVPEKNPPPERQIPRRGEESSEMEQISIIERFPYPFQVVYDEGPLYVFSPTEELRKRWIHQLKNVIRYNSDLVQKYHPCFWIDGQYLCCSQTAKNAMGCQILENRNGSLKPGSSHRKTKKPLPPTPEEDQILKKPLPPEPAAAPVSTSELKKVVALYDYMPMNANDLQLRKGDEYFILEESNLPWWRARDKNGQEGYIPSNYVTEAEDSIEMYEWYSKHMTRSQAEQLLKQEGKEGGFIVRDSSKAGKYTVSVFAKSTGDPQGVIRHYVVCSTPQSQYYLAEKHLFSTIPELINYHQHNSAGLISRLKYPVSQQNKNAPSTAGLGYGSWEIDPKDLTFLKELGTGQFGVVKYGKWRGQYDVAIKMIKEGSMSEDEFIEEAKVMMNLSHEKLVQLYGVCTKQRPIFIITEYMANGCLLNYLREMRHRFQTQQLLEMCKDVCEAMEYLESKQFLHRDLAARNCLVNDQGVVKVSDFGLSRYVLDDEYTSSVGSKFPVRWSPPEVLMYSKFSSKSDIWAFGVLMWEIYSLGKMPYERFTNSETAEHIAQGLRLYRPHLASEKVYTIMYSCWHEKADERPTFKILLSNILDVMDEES
T2 sequence (Q96SW2 whole entry partner): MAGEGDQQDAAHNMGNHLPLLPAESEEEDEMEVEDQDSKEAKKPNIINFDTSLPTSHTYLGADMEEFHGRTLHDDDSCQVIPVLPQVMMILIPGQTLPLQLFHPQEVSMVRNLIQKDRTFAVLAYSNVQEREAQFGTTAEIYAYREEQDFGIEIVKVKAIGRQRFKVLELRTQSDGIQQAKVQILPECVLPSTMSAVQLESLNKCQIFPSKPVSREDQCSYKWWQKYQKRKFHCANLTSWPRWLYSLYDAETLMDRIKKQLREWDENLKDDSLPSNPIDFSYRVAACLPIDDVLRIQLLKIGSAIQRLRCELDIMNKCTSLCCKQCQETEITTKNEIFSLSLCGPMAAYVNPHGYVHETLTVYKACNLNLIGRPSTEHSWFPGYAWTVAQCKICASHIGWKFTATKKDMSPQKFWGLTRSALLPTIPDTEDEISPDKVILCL

[3] = target: T2, Protein cereblon/Tyrosine-protein kinase BTK; assay: PROTAC activity at BTK/CRBN in human MINO cells assessed as BTK protein degradation half life at 20 nM by Western blotting analysis; type: cell-based
[4] = target: T2, Protein cereblon/Tyrosine-protein kinase BTK; assay: PROTAC activity at BTK/CRBN in human MINO cells assessed as BTK protein degradation by measuring onset time activity at 20 nM by Western blotting analysis; type: cell-based
[5] = target: T2, Protein cereblon/Tyrosine-protein kinase BTK; assay: Binding affinity to BTK/CRBN (unknown origin) assessed as ternary complex formation by measuring peak concentration measured after 60 mins incubation by HTRF assay
[6] = Cmax in Sprague-Dawley rat at 4 mg/kg, ip measured upto 48 hrs; type: ADME, organism-based; settings: in vivo
[7] = Bioavailability in Sprague-Dawley rat at 4 mg/kg, ip measured upto 48 hrs; type: ADME, organism-based; settings: in vivo
[8] = target: Tyrosine-protein kinase BTK (Homo sapiens, UniProt Q06187); assay: Binding affinity to BTK (unknown origin) assessed as inhibition constant measured after 60 mins incubation by microtiter-plate reader
Chain of Tyrosine-protein kinase BTK (Q06187 whole entry): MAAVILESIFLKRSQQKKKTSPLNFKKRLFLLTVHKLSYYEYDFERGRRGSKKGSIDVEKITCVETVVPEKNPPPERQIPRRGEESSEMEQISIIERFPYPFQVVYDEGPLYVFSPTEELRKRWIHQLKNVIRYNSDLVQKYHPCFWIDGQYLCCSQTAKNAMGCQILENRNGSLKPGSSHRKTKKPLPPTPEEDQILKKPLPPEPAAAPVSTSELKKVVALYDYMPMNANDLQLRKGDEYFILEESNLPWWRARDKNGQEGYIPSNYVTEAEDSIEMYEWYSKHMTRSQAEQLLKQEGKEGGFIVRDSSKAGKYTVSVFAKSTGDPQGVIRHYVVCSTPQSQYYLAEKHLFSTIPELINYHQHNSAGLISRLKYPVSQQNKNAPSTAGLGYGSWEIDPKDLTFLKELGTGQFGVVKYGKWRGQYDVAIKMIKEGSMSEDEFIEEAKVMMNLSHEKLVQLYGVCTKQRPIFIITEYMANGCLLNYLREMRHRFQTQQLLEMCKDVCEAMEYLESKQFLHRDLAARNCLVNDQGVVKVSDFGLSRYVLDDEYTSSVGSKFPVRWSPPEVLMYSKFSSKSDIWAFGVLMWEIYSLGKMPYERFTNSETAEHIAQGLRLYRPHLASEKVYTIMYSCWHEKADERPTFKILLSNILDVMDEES

[9] = Half life in Sprague-Dawley rat at 2 mg/kg, iv measured upto 48 hrs; type: ADME, organism-based; settings: in vivo
Mus musculus [10] = assay: (§1) Antiosteoclastogenic effects in LPS-soaked ligature-induced C57BL/6J mouse periodontal disease model assessed as reduction in periodontal alveolar bone loss by measuring distance between the alveolar bone crest (ABC) at 10 to 30 mg/kg, ip treated on day 0, 1,4, 7 and measured on day 10 by Micro-CT 3D scan; type: functional, organism-based; settings: dose 10-30 mg/kg, time 7.0 day
[11] = target: T1, Protein cereblon/Tyrosine-protein kinase BTK (Mus musculus); assay: PROTAC activity at BTK/CRBN in C57BL/6J mouse BMM cells assessed as reduction in mCSF/RANKL-stimulated c-Fos protein expression at 25 to 100 nM followed by stimulated with mCSF/RANKL measured after 2 hrs by Western blot analysis; type: cell-based; settings: BMDM, dose 25-100 nM
[12] = AUC (0 to t) in Sprague-Dawley rat at 2 mg/kg, iv measured upto 48 hrs; type: ADME, organism-based; settings: in vivo
[13] = Apparent volume of distribution in Sprague-Dawley rat at 2 mg/kg, iv measured upto 48 hrs; type: ADME, organism-based; settings: in vivo, read-out: Vz
[14] = target: T1, Protein cereblon/Tyrosine-protein kinase BTK (Mus musculus); assay: PROTAC activity at BTK/CRBN in C57BL/6J mouse BMM cells assessed as reduction in mCSF/RANKL-stimulated NFATc1 protein expression at 25 to 100 nM followed by stimulated with mCSF/RANKL measured after 2 hrs by Western blot analysis; type: cell-based; settings: BMDM, dose 25-100 nM
[15] = target: T2, Protein cereblon/Tyrosine-protein kinase BTK; assay: PROTAC activity at BTK/CRBN in human MINO cells assessed as BTK protein degradation pretreated with 2 uM pomalidomide followed by 1 hr treated at 20 nM measured after 48 hrs by Western blotting analysis; type: cell-based; settings: dose […]
BMMC [16] = assay: Inhibition of RANKKL-induced upregulation of osteoclast related genes in C57BL/6J mouse BMM cells assessed as reduction in mCSF/RANKL-stimulated TRAP gene expression at 25 to 100 nM followed by stimulated with mCSF/RANKL measured after 2 hrs by qPCR analysis; type: functional, cell-based; settings: dose 25-100 nM
Mus musculus [17] = assay: Antiosteoclastogenic effects in LPS-soaked ligature-induced C57BL/6J mouse periodontal disease model assessed as reduction in periodontal alveolar bone loss at 30 mg/kg, ip treated on day 0, 1,4, 7 and measured on day 10 by Micro-CT 3D scan; type: functional, organism-based; settings: time 7.0 day
[18] = Clearance in Sprague-Dawley rat at 2mg/kg, iv measured upto 48 hrs; type: ADME, organism-based; settings: in vivo
[19] = Clearance in Sprague-Dawley rat at 4 mg/kg, ip measured upto 48 hrs; settings: in vivo
[20] = Half life in Sprague-Dawley rat at 4 mg/kg, ip measured upto 48 hrs; type: ADME, organism-based; settings: in vivo
[21] = AUC (0 to infinity) in Sprague-Dawley rat at 4 mg/kg, ip measured upto 48 hrs; type: ADME, organism-based; settings: in vivo
Mus musculus [22] = assay: Antiosteoclastogenic effects in LPS-soaked ligature-induced C57BL/6J mouse periodontal disease model assessed as reduction in periodontal alveolar bone loss by measuring increase in bone volume per tissue volume (BV/TV%) at 10 to 30 mg/kg, ip treated on day 0, 1,4, 7 and measured on day 10 by Micro-CT 3D scan; type: functional, organism-based; settings: dose 10-30 mg/kg, time 7.0 day
[23] = target: T1, Protein cereblon/Tyrosine-protein kinase BTK (Mus musculus); assay: PROTAC activity at BTK/CRBN in mCSF/RANKL-stimulated C57BL/6J mouse BMDM assessed as reduction in phosphorylated PLCgamma2 protein level at 25 to 100 nM followed by stimulated with mCSF/RANKL measured after 2 hrs by Western blotting analysis; type: cell-based; settings: dose 25-100 nM
[24] = Cmax in Sprague-Dawley rat at 2 mg/kg, iv measured upto 48 hrs; type: ADME, organism-based; settings: in vivo
Mus musculus [25] = assay: as §1, with “cemento-enamel junction (CEJ)” for “alveolar bone crest (ABC)”; type: functional, organism-based; settings: dose 10-30 mg/kg, time 7.0 day
[26] = target: T1, Protein cereblon/Tyrosine-protein kinase BTK (Mus musculus); assay: PROTAC activity at BTK/CRBN in mCSF/RANKL-stimulated C57BL/6J mouse BMDM assessed as BTK protein degradation at 25 to 100 nM followed by stimulated with mCSF/RANKL measured after 2 hrs by Western blotting analysis; type: cell-based; settings: dose 25-100 nM
[27] = target: T2, Protein cereblon/Tyrosine-protein kinase BTK; assay: PROTAC activity at BTK/CRBN in human MINO cells assessed as BTK protein degradation at 20 nM measured after 2 hrs by Western blotting analysis; type: cell-based
[28] = target: T2, Protein cereblon/Tyrosine-protein kinase BTK; assay: PROTAC activity at BTK/CRBN in human MINO cells assessed as BTK protein degradation at 20 nM by Western blotting analysis; type: cell-based; settings: time lower 2.0 hrs, time upper […], TDE = time-dependent effect
BMMC [29] = assay: Inhibition of osteoclastogenesis in C57BL/6J mouse BMM cells assessed as inhibition of mCSF/RANKL-stimulated matured osteoclast formation measured after 5 days co-incubation by tartrate-resistant acid phosphatase (TRAP) staining assay; type: functional, cell-based; settings: time 5.0 day
BMMC [30] = assay: Inhibition of RANKKL-induced upregulation of osteoclast related genes in C57BL/6J mouse BMM cells assessed as reduction in mCSF/RANKL-stimulated Dcstamp-gene expression at 25 to 100 nM followed by stimulated with mCSF/RANKL measured after 2 hrs by qPCR analysis; type: functional, cell-based; settings: dose 25-100 nM
[31] = Apparent volume of distribution in Sprague-Dawley rat at 4 mg/kg, ip measured upto 48 hrs; type: ADME, organism-based; settings: in vivo
[32] = target: T2, Protein cereblon/Tyrosine-protein kinase BTK; assay: PROTAC activity at BTK/CRBN in human MINO cells assessed as BTK protein degradation pretreated with 2 uM MG132 followed by 1 hr treated at 20 nM measured after 48 hrs by Western blotting analysis; type: cell-based; settings: dose […]
Protein cereblon = Protein cereblon (Homo sapiens, UniProt Q96SW2); assay: Inhibition of CRBN (unknown origin) measured after 60 mins incubation by BMG reader
Chain of Protein cereblon (Q96SW2 whole entry): as the sequence (Q96SW2 whole entry partner) above

Activity [1]: Active
Activity [2]: 99%
T1/2 [3]: 0.59 h
TIME [4]: < 0.5 h
Activity [5]: 12.3 nM
Cmax [6]: 184 ng/mL
bioavailability [7]: 65.7%
Ki [8]: 0.152 µM
half-life [9]: 7.03 h
Activity [11]: Active
AUC(0-t) at 48 h [12]: 2340 ng·h/mL
Vd [13]: 9.29 L/kg
Activity [14]: Active
Activity [15]: inactive
clearance [18]: 15.2 mL/min/kg
CL/F at 48 h [19]: 25.8 mL/min/kg
half-life [20]: 13.6 h
AUC(0-inf) [21]: 3090 ng·h/mL
Activity [23]: Active
Cmax [24]: 645 ng/mL
Activity [26]: inactive
Activity [27]: Active
Activity [28]: Tde
Vz [31]: 30.04 L/kg
Activity [32]: inactive
IC50 (Protein cereblon): 0.248 µM
Compound: Cc1cc(-c2nc(Nc3cnn(C4CCN(CC5CCN(c6ccc7c(c6)C(=O)N(C6CCC(=O)NC6=O)C7=O)CC5)CC4)c3)ncc2F)ccc1CNC(=O)c1cn(C(C)(C)C)nn1 (stereo not drawn)
Activity (Mus musculus [10]): Active
inhibition (BMMC [16]): Active
Activity (Mus musculus [17]): Active
Activity (Mus musculus [22]): Active
Activity (Mus musculus [25]): Active
inhibition (BMMC [29]): Active
inhibition (BMMC [30]): Active
